Values after ≈ are worked out from the molar mass of the structure shown. Active and inactive are the calls of the source. The rule behind the calls is not given here.
Legend:
Mus musculus [1] = test: Anti-colitis activity in C57BL/6 mouse model of DSS-induced colitis assessed as increase in intestinal epithelial cells in colon at 100 uM, REC for 7 days administered daily by H and E staining based analysis by immunofluorescence based analysis; format: functional, organism-based; details: time 7.0 day
[2] = Aqueous solubility of compound in SIF at pH 6.8 by spectrometry; format: ADME; details: simulated gi fluid
Mus musculus [3] = test: Anti-colitis activity in C57BL/6 mouse model of DSS-induced colitis assessed as decrease in rectal bleeding at 100 uM, REC for 7 days administered daily; format: functional, organism-based; details: time 7.0 day
[4] = Half life in Sprague-Dawley rat at 1 mg/kg, iv; format: ADME, organism-based; details: in vivo
[5] = Metabolic stability in human liver microsomes measured for 90 mins; format: ADME, Microsome; details: 1.5 h
Mus musculus [6] = test: Anti-colitis activity in C57BL/6 mouse model of DSS-induced colitis assessed as decrease in spleen weight index at 100 uM, REC for 7 days administered daily; format: functional, organism-based; details: time 7.0 day
Mus musculus [7] = test: Anti-colitis activity in C57BL/6 mouse model of DSS-induced colitis assessed as decrease in endoscopic damage in colon at 100 uM, REC for 7 days administered daily; format: functional, organism-based; details: time 7.0 day
[8] = Cmax in Sprague-Dawley rat at 5 mg/kg, po; format: ADME, organism-based; details: in vivo
Mus musculus [9] = test: Anti-colitis activity in C57BL/6 mouse model of DSS-induced colitis assessed as increase in colon length at 100 uM, REC for 7 days administered daily; format: functional, organism-based; details: time 7.0 day
[10] = Tmax in Sprague-Dawley rat at 5 mg/kg, po; format: ADME, organism-based; details: in vivo
[11] = Oral bioavailability in Sprague-Dawley rat at 5 mg/kg; format: ADME, organism-based; details: in vivo
P2Y purinoceptor 14 = molecular target: T1, P2Y purinoceptor 14 (Homo sapiens, UniProt Q15391); test: Antagonist activity at P2Y14R (unknown origin) stably expressed in HEK293 cells assessed as inhibition of forskolin-induced cAMP production by cAMP-Glo assay; format: functional, cell-based
T1 sequence (Q15391 whole entry): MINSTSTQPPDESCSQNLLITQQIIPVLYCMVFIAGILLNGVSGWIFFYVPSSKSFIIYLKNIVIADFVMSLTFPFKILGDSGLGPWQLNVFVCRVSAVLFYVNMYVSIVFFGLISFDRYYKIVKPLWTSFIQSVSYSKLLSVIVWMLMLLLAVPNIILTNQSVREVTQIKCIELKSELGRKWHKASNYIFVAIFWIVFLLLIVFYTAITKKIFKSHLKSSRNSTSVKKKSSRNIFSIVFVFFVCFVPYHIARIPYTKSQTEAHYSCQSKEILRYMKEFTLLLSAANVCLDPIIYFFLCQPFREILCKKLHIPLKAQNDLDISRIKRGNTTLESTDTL

Mus musculus [12] = test: Anti-colitis activity in C57BL/6 mouse model of DSS-induced colitis assessed as increase in body weight at 100 uM, REC for 7 days administered daily; format: functional, organism-based; details: time 7.0 day
[13] = Aqueous solubility of compound in SGF at pH 1.2 by spectrometry; format: ADME; details: SGF, read-out: solubility
Mus musculus [14] = test: Anti-colitis activity in C57BL/6 mouse model of DSS-induced colitis assessed as decrease in loose stools at 100 uM, REC for 7 days administered daily; format: functional, organism-based; details: time 7.0 day
[15] = AUC (all) in Sprague-Dawley rat at 1 mg/kg, iv; format: ADME, organism-based; details: in vivo
[16] = Aqueous solubility of compound in PBS at pH 7.4 by spectrometry; format: physicochemical; details: buffer
[17] = molecular target: T2, P2Y purinoceptor 14 (Homo sapiens) (UniProt Q15391); details: HEK293, filed as antagonist, dose 100.0 nM
T2 sequence (whole entry): T1 sequence (Q15391 whole entry)
Description: Antagonist activity at P2Y14R (unknown origin) stably expressed in HEK293 cells assessed as inhibition of forskolin-induced cAMP production at 100 nM by cAMP-Glo assay relative to control

[18] = Aqueous solubility of compound in double distilled water at pH 7 by spectrometry; format: physicochemical; details: buffer
Mus musculus [19] = test: Anti-colitis activity in C57BL/6 mouse model of DSS-induced colitis assessed as decrease in histological damage in colon at 100 uM, REC for 7 days administered daily by H and E staining based analysis; format: functional, organism-based; details: time 7.0 day
[20] = Half life in Sprague-Dawley rat at 5 mg/kg, po; format: ADME, organism-based; details: in vivo
[21] = AUC (all) in Sprague-Dawley rat at 5 mg/kg, po; format: ADME, organism-based; details: in vivo

solubility [2]: 0.175 µg/mL (≈ 0.47 µM)
half-life [4]: 21 min
Stability [5]: Stable
Cmax [8]: 518 ng/mL
Tmax [10]: 15 min
bioavailability [11]: 65%
IC50 (P2Y purinoceptor 14): 400 pM
solubility [13]: 0.051 µg/mL (≈ 0.137 µM)
AUC [15]: 27924 ng·min/mL
solubility [16]: 1.995 µg/mL (≈ 5.36 µM)
inhibition [17]: 130%
solubility [18]: 0.088 µg/mL (≈ 0.236 µM)
half-life [20]: 178 min
AUC [21]: 90744 ng·min/mL
Compound: Cc1ccc(C(=O)Nc2cc(C(=O)O)sc2Oc2ccc(F)cn2)cc1
Activity (Mus musculus [1]): Active
Activity (Mus musculus [3]): Active
Activity (Mus musculus [6]): Active
Activity (Mus musculus [7]): Active
Activity (Mus musculus [9]): Active
Activity (Mus musculus [12]): Active
Activity (Mus musculus [14]): Active
Activity (Mus musculus [19]): Active
